In ChEMBL document CHEMBL3232809, “Synthesis, antibiotic activity and structure-activity relationship study of some 3-enaminetetramic acids” (2014):
Values after ≈ are worked out from the molar mass of the structure shown.

Experiments:
Type in all cases: functional
Escherichia coli [1] = experiment: Antimicrobial activity against Escherichia coli ATCC 25922
Streptococcus pneumoniae [2] = experiment: Antimicrobial activity against penicillin- and erythromycin-resistant Streptococcus pneumoniae
Streptococcus pneumoniae [3] = experiment: Antimicrobial activity against penicillin- and erythromycin-resistant Streptococcus pneumoniae in presence of 2.5% horse blood
Staphylococcus aureus [4] = experiment: Antimicrobial activity against methicillin-sensitive Staphylococcus aureus ATCC 13709
Pseudomonas aeruginosa = experiment: Antimicrobial activity against Pseudomonas aeruginosa ATCC 27853
Streptococcus pneumoniae [5] = experiment: Antimicrobial activity against erythromycin-susceptible Streptococcus pneumoniae ATCC 49619
Staphylococcus aureus [6] = experiment: Antimicrobial activity against Staphylococcus aureus Oxford
Enterococcus faecalis = experiment: Antimicrobial activity against vancomycin-susceptible Enterococcus faecalis ATCC 29212
Haemophilus influenzae [7] = experiment: Antimicrobial activity against LS2 Efflux knock-out Haemophilus influenzae
Enterococcus faecium = experiment: Antimicrobial activity against vancomycin-resistant Enterococcus faecium
Haemophilus influenzae [8] = experiment: Antimicrobial activity against Haemophilus influenzae ATCC 31517 MMSA
Escherichia coli [9] = experiment: Antimicrobial activity against Escherichia coli 50
Escherichia coli [10] = experiment: Antimicrobial activity against Escherichia coli 49
Staphylococcus aureus [11] = experiment: Antimicrobial activity against methicillin-resistant Staphylococcus aureus
Staphylococcus aureus [12] = experiment: Antimicrobial activity against vancomycin-susceptible Staphylococcus aureus ATCC 25923

SMILES	MIC (Escherichia coli [1]) [µg/mL]	MIC (Streptococcus pneumoniae [2]) [µg/mL]	MIC (Streptococcus pneumoniae [3]) [µg/mL]	MIC (Staphylococcus aureus [4]) [µg/mL]	MIC (Pseudomonas aeruginosa) [µg/mL]	MIC (Streptococcus pneumoniae [5]) [µg/mL]	MIC (Staphylococcus aureus [6]) [µg/mL]	MIC (Enterococcus faecalis) [µg/mL]	MIC (Haemophilus influenzae [7]) [µg/mL]	MIC (Enterococcus faecium) [µg/mL]	MIC (Haemophilus influenzae [8]) [µg/mL]	MIC (Escherichia coli [9]) [µg/mL]	MIC (Escherichia coli [10]) [µg/mL]	MIC (Staphylococcus aureus [11]) [µg/mL]	MIC (Staphylococcus aureus [12]) [µg/mL]
COC(=O)[C@@]12CO[C@@H](C(C)(C)C)N1C(=O)/C(=C(\C)NC13CC4CC(CC(C4)C1)C3)C2=O	> 32	> 64	> 64	> 64	> 32	> 64	> 64	> 64	16 (≈ 37.2 µM)	> 64	> 64	> 32	> 32	> 64	> 64
CCCC(=O)N1CC(=O)/C(=C(\CC23CC4CC(CC(C4)C2)C3)NCCCN2CCOCC2)C1=O	> 32	64 (≈ 136 µM)	64	> 64	> 32	64 (≈ 136 µM)	> 64	> 64	16 (≈ 33.9 µM)	> 64	> 64	> 32	> 32	> 64	> 64
CCCC(=O)N1CC(=O)/C(=C(\CC23CC4CC(CC(C4)C2)C3)NCCCN2CCCCC2C)C1=O (stereo not given)	> 32	32 (≈ 66.2 µM)	32	64 (≈ 132 µM)	> 32	32 (≈ 66.2 µM)	64 (≈ 132 µM)	64 (≈ 132 µM)	32 (≈ 66.2 µM)	64 (≈ 132 µM)	> 64	> 32	> 32	64 (≈ 132 µM)	64 (≈ 132 µM)
CSCCC1C(=O)/C(=C(\CC23CC4CC(C)(CC(C)(C4)C2)C3)NCC(C)(C)CN(C)C)C(=O)N1C(C)=O (stereo not given)	> 32	> 64	> 64	> 64	> 32	> 64	> 64	> 64	4 (≈ 7.52 µM)	> 64	> 64	> 32	> 32	> 64	> 64
CCOC(=O)[C@]12CO[C@H](C(C)(C)C)N1C(=O)/C(=C(/CC13CC4CC(CC(C4)C1)C3)NC(C)CCCN(CC)CC)C2=O (stereo not given in full)	> 32	16 (≈ 27.3 µM)	32	32 (≈ 54.6 µM)	> 32	32 (≈ 54.6 µM)	32 (≈ 54.6 µM)	32 (≈ 54.6 µM)	16 (≈ 27.3 µM)	32 (≈ 54.6 µM)	> 64	> 32	> 32	64 (≈ 109 µM)	64 (≈ 109 µM)
CCOC(=O)[C@]12CO[C@H](C(C)(C)C)N1C(=O)/C(=C(/CC13CC4CC(CC(C4)C1)C3)NCCCN1CCOCC1)C2=O	> 32	> 64	> 64	> 64	> 32	> 64	> 64	> 64	8 (≈ 14 µM)	> 64	> 64	> 32	> 32	> 64	> 64
CCCCCCCCCN/C(C)=C1/C(=O)N2[C@@H](C(C)(C)C)OC[C@]2(C(=O)OC)C1=O	> 32	> 32	> 32	> 32	> 32	> 32	> 32	> 32	> 32	> 32	> 32	> 32	> 32	> 32	> 32
CCCCOCCCN/C(C)=C1/C(=O)N2[C@@H](C(C)(C)C)OC[C@]2(C(=O)OCC)C1=O	> 32	> 32	> 32	> 32	> 32	> 32	> 32	> 32	> 32	> 32	> 32	> 32	> 32	> 32	> 32
COC(=O)[C@@]12CO[C@@H](C(C)(C)C)N1C(=O)/C(=C(\C)NCC1CCC3CC1C3(C)C)C2=O (stereo not given in full)	> 32	> 32	> 32	> 32	> 32	> 32	> 32	> 32	> 32	> 32	> 32	> 32	> 32	> 32	> 32
CCOC(=O)[C@]12CO[C@H](C(C)(C)C)N1C(=O)/C(=C(\C)NCCCN1CCOCC1)C2=O	> 32	> 32	> 32	> 32	> 32	> 32	> 32	> 32	> 32	> 32	> 32	> 32	> 32	> 32	> 32
CCOC(=O)[C@]12CO[C@H](C(C)(C)C)N1C(=O)/C(=C(\C)NCc1cccc(CN3CCC(C)CC3)c1)C2=O	> 32	> 32	> 32	> 32	> 32	> 32	> 32	> 32	> 32	> 32	> 32	> 32	> 32	> 32	> 32
CCOC(=O)[C@]12CO[C@H](C(C)(C)C)N1C(=O)/C(=C(\C)NCc1ccc(C)o1)C2=O	> 32	> 32	> 32	> 32	> 32	> 32	> 32	> 32	> 32	> 32	> 32	> 32	> 32	> 32	> 32
CCOC(=O)[C@]12CO[C@H](C(C)(C)C)N1C(=O)/C(=C(\C)N1CCN(C3CCCCC3)CC1)C2=O	> 32	> 32	> 32	> 32	> 32	> 32	> 32	> 32	> 32	> 32	> 32	> 32	> 32	> 32	> 32
COCCOC(=O)[C@]12CO[C@H](C(C)(C)C)N1C(=O)/C(=C(\C)NCCOc1ccccc1)C2=O	> 32	> 32	> 32	> 32	> 32	> 32	> 32	> 32	> 32	> 32	> 32	> 32	> 32	> 32	> 32
